Source: patent US20230373934A1, “ANDROGEN RECEPTOR MODULATORS AND METHODS FOR THEIR USE” (ESSA Pharma, Inc., priority 2022, published 2023)

Biological target: T1, androgen receptor (AR) (Homo sapiens, UniProt P10275, T878A)
T1 construct: endogenous in cells; host or cells: LNCaP
T1 sequence (P10275 1-920 T878A): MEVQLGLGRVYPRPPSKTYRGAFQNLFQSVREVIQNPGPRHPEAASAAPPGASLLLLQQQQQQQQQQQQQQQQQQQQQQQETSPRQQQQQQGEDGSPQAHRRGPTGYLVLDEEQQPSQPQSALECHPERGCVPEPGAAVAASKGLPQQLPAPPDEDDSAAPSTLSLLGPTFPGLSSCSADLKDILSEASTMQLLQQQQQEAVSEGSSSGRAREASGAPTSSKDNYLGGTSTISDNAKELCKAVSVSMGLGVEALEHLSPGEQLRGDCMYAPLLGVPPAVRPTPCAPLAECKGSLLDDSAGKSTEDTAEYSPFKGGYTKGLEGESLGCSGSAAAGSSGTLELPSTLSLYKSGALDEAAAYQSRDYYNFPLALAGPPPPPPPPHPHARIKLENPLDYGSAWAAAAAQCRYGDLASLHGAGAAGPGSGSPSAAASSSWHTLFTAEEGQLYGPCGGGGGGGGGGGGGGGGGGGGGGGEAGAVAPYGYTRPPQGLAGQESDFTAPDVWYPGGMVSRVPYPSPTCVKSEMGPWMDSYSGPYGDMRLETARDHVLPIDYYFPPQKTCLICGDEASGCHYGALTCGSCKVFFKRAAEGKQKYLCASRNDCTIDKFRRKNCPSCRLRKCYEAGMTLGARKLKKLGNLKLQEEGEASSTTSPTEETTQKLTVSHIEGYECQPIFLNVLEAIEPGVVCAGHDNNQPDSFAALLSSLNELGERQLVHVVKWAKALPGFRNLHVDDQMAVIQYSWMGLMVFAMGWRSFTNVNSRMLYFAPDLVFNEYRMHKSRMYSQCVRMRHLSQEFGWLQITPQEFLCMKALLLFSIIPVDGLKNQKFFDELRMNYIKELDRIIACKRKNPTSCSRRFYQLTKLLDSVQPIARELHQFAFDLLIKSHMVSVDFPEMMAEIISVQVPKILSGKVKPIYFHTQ
Experiment: Androgen-induced PSA-luciferase assay, Luciferase Assay A (LNCaP transiently transfected with PSA (6.1 kb)-luciferase reporter)
Type: cell-based
Conditions: LNCaP cells, 1 h pretreatment, R1881 (1 nM) 24 h, read-out: PSA-Luc IC50 Range
Method: The PSA (6.1 kb)-luciferase reporter contains functional AREs (androgen response elements) to which AR binds in response to androgen to induce luciferase activity. LNCaP cells were transiently transfected with the PSA (6.1 kb)-luciferase reporter for 24 h, and then pretreated with vehicle (DMSO) or indicated concentration of representative compounds for one hour prior to the addition of synthetic androgen, R1881 (1 nM). After 24 h of incubation with R1881, the cells were harvested, and relative luciferase activities were determined (FIG. 1). To determine the IC50, treatments were normalized to vehicle control activity induced by R1881 (Table 2).
Luciferase Assay A: Cells were lysed using Passive Lysis Buffer (Promega) and then collected into V-bottom 96-well tissue culture plates. Lysates were centrifuged at 4° C. for 5 minutes at 3000 rpm. To measure luminescence of LNCaP cell lysates the Firefly Luciferase Assay System (Promega) was employed, according to manufacturer's protocol. Relative luminescence units (RLU) in cell lysates were detected for 10 seconds using Promega GloMax-Multi Detection Luminometer (Promega). Values were normalized to protein content. GraphPad Prism graphing software was used to calculate IC50 values. Luciferase Assay A was run for all compounds in Table 2 unless otherwise noted below.
Statistical analyses were performed using GraphPad Prism (Version 6.01 for Windows; La Jolla, CA, USA). Comparisons between treatment and control groups were compared using Two-Way ANOVA with post-hoc Dunnett's and Tukey's tests. Differences were considered statistically significant at P values less than 0.05.

Row | Structure (SMILES) | IC50
1 | CC(C)(c1ccc(OCc2ccnc(NS(=O)(=O)c3ccccn3)n2)cc1)c1cc(Cl)c(OCCCl)c(C#N)c1 [Compound A110] | 500 to 2000 nM
2 | CS(=O)(=O)NC1CCN(Cc2ccc(Oc3cc(Cl)c(OCCCl)c(C#N)c3)cc2)CC1 [Compound A9] | > 2000 nM
3 | CC(C)(c1ccc(OCc2ccnc(NS(=O)(=O)c3cccs3)n2)cc1)c1cc(Cl)c(OCCCl)c(C#N)c1 [Compound A100] | 500 to 2000 nM
4 | CC(C)(c1ccc(OCc2ccnc(-n3cnc(S(N)(=O)=O)c3)n2)cc1)c1cc(Cl)c(OCCCl)c(C#N)c1 [Compound A106] | 500 to 2000 nM
5 | CS(=O)(=O)Nc1cnc2cc(-c3ncc(Oc4cc(Cl)c(OCCCl)c(C#N)c4)cn3)ccc2n1 [Compound A123] | > 2000 nM
6 | CC(C)(c1ccc(OCc2ccnc(NS(C)(=O)=O)n2)cc1)c1cc(Cl)c(OC2CC(F)(F)C2)c(C#N)c1 [Compound A121] | 500 to 2000 nM
7 | CS(=O)(=O)NC1CCN(Cc2ccc(Oc3cc(Cl)c(OCCCl)c(C#N)c3)cc2)CC1(F)F (stereo not drawn) [Compound A35] | > 2000 nM
8 | CS(=O)(=O)Nc1nc2ccc(-c3ccc(Oc4cc(Cl)c(OCCCl)c(C#N)c4)cc3)cc2o1 [Compound A61] | 500 to 2000 nM
9 | CC(C)(c1ccc(OCc2ccnc(NS(C)(=O)=O)n2)cc1)c1cc(Cl)c(CCCl)c(C#N)c1 [Compound A136] | 500 to 2000 nM
10 | CC(C)(c1ccc(OC2CC3(C2)CN(S(C)(=O)=O)C3)cc1)c1cc(Cl)c(N2CCOCC2)c(C#N)c1 [Compound A140] | 500 to 2000 nM
11 | CC(C)(c1ccc(OCc2ccnc(NS(C)(=O)=O)n2)cc1)c1cnc(OCCCl)c(C#N)c1 [Compound A170] | > 2000 nM
12 | CC(C)(c1ccc(OCC23CC(NS(C)(=O)=O)(C2)C3)cc1)c1cc(Cl)c(N2CCOCC2)c(C#N)c1 [Compound A142] | 500 to 2000 nM
13 | CC(C)(c1ccc(OCc2ccnc(NS(C)(=O)=O)n2)cc1)c1cc(Cl)c(N2CCOC3(CC3)C2)c(C#N)c1 [Compound A148] | 500 to 2000 nM
14 | CC(C)(C)OC(=O)N1CCN(c2cc(COc3ccc(C(C)(C)c4cc(Cl)c(OCCCl)c(C#N)c4)cc3)nc(NS(C)(=O)=O)n2)CC1 [Compound A117] | > 2000 nM
15 | CC(C)(c1ccc(OCc2ccnc(NS(C)(=O)=O)n2)cc1)c1cc(Cl)c(CCN2CC(F)(F)C2)c(C#N)c1 [Compound A168] | > 2000 nM
16 | CC(C)(c1ccc(OCc2ccnc(NS(C)(=O)=O)n2)cc1)c1cc(Cl)c(OC2CN(CC(F)(F)F)C2)c(C#N)c1 [Compound A165] | > 2000 nM
17 | Cn1cnc(S(=O)(=O)Nc2nccc(COc3ccc(C(C)(C)c4cc(Cl)c(OCCCl)c(C#N)c4)cc3)n2)c1 [Compound A107] | > 2000 nM
18 | COC1CN(c2c(Cl)cc(C(C)(C)c3ccc(OCc4ccnc(NS(C)(=O)=O)n4)cc3)cc2C#N)C1 [Compound A167] | > 2000 nM
19 | CS(=O)(=O)Nc1cnc2cc(-c3ccc(Nc4cc(Cl)c(OCCCl)c(C#N)c4)cc3)ccc2n1 [Compound A27] | > 2000 nM
20 | CC(C)(c1cc(Cl)c(OCCCl)c(C#N)c1)c1ccc(OCc2ccnc(NS(C)(=O)=O)n2)c(CN)c1 [Compound A111] | > 2000 nM
21 | CC(C)(c1ccc(OCc2ccnc(-n3cnc(S(N)(=O)=O)n3)n2)cc1)c1cc(Cl)c(OCCCl)c(C#N)c1 [Compound A108] | 500 to 2000 nM
22 | CC(C)(c1ccc(-c2ccc3c(c2)COC32CN(S(C)(=O)=O)C2)cc1)c1cc(Cl)c(OCCCl)c(C#N)c1 [Compound A10] | 500 to 2000 nM
23 | CC(C)(c1ccc(OCc2ccnc(NS(C)(=O)=O)n2)cc1)c1cc(Cl)c(CN2CCOCC2)c(Cl)c1 [Compound A159] | > 2000 nM
24 | CC(C)(c1ccc(OCc2ccnc(NS(C)(=O)=O)n2)cc1)c1cc(Cl)c(CN2CC(F)(F)C2)c(Cl)c1 [Compound A166] | 500 to 2000 nM
25 | CC(C)(c1ccc(OCc2ccnc(NS(C)(=O)=O)n2)cc1)c1cc(Cl)c(CN2CCCC(F)(F)C2)c(Cl)c1 [Compound A160] | > 2000 nM
26 | CS(=O)(=O)Nc1cnc2cc(N3CCC(Oc4cc(Cl)c(OCCCl)c(C#N)c4)CC3)ccc2n1 [Compound A88] | > 2000 nM
27 | CC(C)(c1ccc(OCc2ccnc(NS(C)(=O)=O)n2)cc1)c1cc(Cl)c(OC(F)F)c(C#N)c1 [Compound A42] | 500 to 2000 nM
28 | CC(C)(c1ccc(-c2cnc3cc(NS(C)(=O)=O)ccc3n2)cc1)c1cc(Cl)c(OCCCl)c(C#N)c1 [Compound A124] | 500 to 2000 nM
29 | CC(C)(c1ccc(OCc2ccnc(NS(C)(=O)=O)n2)cc1)c1cc(Cl)c(N2CCC(F)(F)CC2)c(C#N)c1 [Compound A132] | > 2000 nM
30 | CS(=O)(=O)Nc1cnc2cc(-c3ccc(Oc4cc(Cl)c(OCCCl)c(C#N)c4)cc3)cnc2n1 [Compound A49] | 500 to 2000 nM

The next lines start with the values.

Row | IC50 | Structure (SMILES)
31 | 500 to 2000 nM | CC(C)(c1ccc(-c2cnc(CNS(C)(=O)=O)nc2)cc1)c1cc(Cl)c(OCCCl)c(C#N)c1 [Compound A4]
32 | > 2000 nM | CC(C)(c1ccc(-c2cncc(N3CC(NS(C)(=O)=O)C3)n2)cc1)c1cc(Cl)c(OCCCl)c(C#N)c1 [Compound A41]
33 | 500 to 2000 nM | CC(C)(c1ccc(OCC23CC(NS(C)(=O)=O)(C2)C3)cc1)c1cc(Cl)c(OC2CC2)c(C#N)c1 [Compound A143]
34 | 500 to 2000 nM | CC(C)(c1ccc(OCc2ccc(F)c(NS(C)(=O)=O)n2)cc1)c1cc(Cl)c(OCCCl)c(C#N)c1 [Compound A125]
35 | 500 to 2000 nM | CC(C)(c1ccc(-n2cc(N3CC(NS(C)(=O)=O)C3)cn2)cc1)c1cc(Cl)c(OCCCl)c(C#N)c1 [Compound A45]
36 | 500 to 2000 nM | CC(C)(c1ccc(OCc2ccc(F)c(NS(C)(=O)=O)c2)cc1)c1cc(Cl)c(OCCCl)c(C#N)c1 [Compound A131]
37 | 500 to 2000 nM | CC(C)(c1ccc(OC2CC3(CC(NS(C)(=O)=O)C3)C2)cc1)c1cc(Cl)c(OCCCl)c(C#N)c1 (stereo not drawn) [Compound A150]
38 | > 2000 nM | CC(C)(c1ccc(OCc2cc(C3CCNCC3)nc(NS(C)(=O)=O)n2)cc1)c1cc(Cl)c(OCCCl)c(C#N)c1 [Compound A114]
39 | > 2000 nM | CC(C)(c1ccc(OC[C@]2(C)C[C@H](NS(C)(=O)=O)C2)cc1)c1cc(Cl)c(OCCCl)c(C#N)c1 [Compound A51]
40 | 500 to 2000 nM | CC(C)(c1ccc(-c2ccc(CNS(C)(=O)=O)cn2)cc1)c1cc(Cl)c(OCCCl)c(C#N)c1 [Compound A3]
41 | > 2000 nM | CC(C)(c1ccc(OC[C@]2(C)C[C@@H](NS(C)(=O)=O)C2)cc1)c1cc(Cl)c(OCCCl)c(C#N)c1 [Compound A25]
42 | 500 to 2000 nM | CC(C)(c1ccc(Oc2ccnc(CNS(C)(=O)=O)n2)cc1)c1cc(Cl)c(OCCCl)c(C#N)c1 [Compound A85]
43 | 500 to 2000 nM | CC(C)(c1ccc(OCc2cccc(NS(C)(=O)=O)c2F)cc1)c1cc(Cl)c(OCCCl)c(C#N)c1 [Compound A130]
44 | > 2000 nM | CC(C)(c1ccc(N2CCN(C3CC(NS(C)(=O)=O)C3)CC2)cc1)c1cc(Cl)c(OCCCl)c(C#N)c1 (stereo not drawn) [Compound A48]
45 | < 500 nM | CC(C)(c1ccc(-c2ccc(CCNS(C)(=O)=O)nc2)cc1)c1cc(Cl)c(OCCCl)c(C#N)c1 [Compound A6]
46 | 500 to 2000 nM | CC(C)(c1ccc(-c2ncc(CNS(C)(=O)=O)cn2)cc1)c1cc(Cl)c(OCCCl)c(C#N)c1 [Compound A5]
47 | 500 to 2000 nM | CC(C)(c1ccc(-c2ccc(N3CC(NS(C)(=O)=O)C3)nn2)cc1)c1cc(Cl)c(OCCCl)c(C#N)c1 [Compound A69]
48 | > 2000 nM | CC(C)(c1ccc(CCN2CCC(NS(C)(=O)=O)CC2)cc1)c1cc(Cl)c(OCCCl)c(C#N)c1 [Compound A29]
49 | 500 to 2000 nM | CC(C)(c1ccc(N2CCOC(CNS(C)(=O)=O)C2)cc1)c1cc(Cl)c(OCCCl)c(C#N)c1 (stereo not drawn) [Compound A14]
50 | < 500 nM | CC(C)(c1ccc(-c2cnc(N3CC(NS(C)(=O)=O)C3)c(F)c2)cc1)c1cc(Cl)c(OCCCl)c(C#N)c1 [Compound A50]
51 | 500 to 2000 nM | CC(C)(c1ccc(OC[C@]2(F)C[C@@H](NS(C)(=O)=O)C2)cc1)c1cc(Cl)c(OCCCl)c(C#N)c1 [Compound A39]
